The text below walks through data of patent publication US7452896B2, “Pyrimidine-sulfamides and their use as endothelian receptor antagonist” (Actelion Pharmaceuticals Ltd., priority 2002, dated 2008).

Where only a bound is given, the exact number is not on record here.

Assay [1] addresses T1, human recombinant ETA receptors (Homo sapiens, UniProt P25101).
T1 construct: expressed in transfected cells; host or cells: CHO cells (microsomal membranes)
T1 sequence (P25101 21-427): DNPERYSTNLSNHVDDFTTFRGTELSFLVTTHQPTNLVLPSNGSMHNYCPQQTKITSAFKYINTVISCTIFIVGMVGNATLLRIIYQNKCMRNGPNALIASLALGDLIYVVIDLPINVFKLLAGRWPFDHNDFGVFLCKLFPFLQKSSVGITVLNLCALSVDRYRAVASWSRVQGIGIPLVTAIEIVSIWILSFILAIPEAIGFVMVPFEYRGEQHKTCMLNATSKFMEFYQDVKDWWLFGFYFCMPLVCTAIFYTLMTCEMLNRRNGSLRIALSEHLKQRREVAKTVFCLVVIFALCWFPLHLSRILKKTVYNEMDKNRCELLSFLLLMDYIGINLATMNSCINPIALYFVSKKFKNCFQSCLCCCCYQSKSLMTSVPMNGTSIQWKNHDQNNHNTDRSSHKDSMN
Kind of assay: Inhibition of [125I]ET-1 binding to membranes of CHO cells expressing human recombinant ETA receptors. The method, then: (§1) 1) Inhibition of Endothelin Binding to Membranes from CHO Cells Carrying Human ET Receptors:
(§2) For competition binding studies, membranes of CHO cells expressing human recombinant ETA or ETB receptors were used. Microsomal membranes from recombinant CHO cells were prepared and the binding assay made as previously described (Breu V., et al, FEBS Lett 1993; 334:210).
(§3) The assay was performed in 200 uL 50 mM Tris/HCl buffer, pH 7.4, including 25 mM MnCl2, 1 mM EDTA and 0.5% (w/v) BSA in polypropylene microtiter plates. […] After 2 h, the membranes were filtered on filterplates containing GF/C filters (Unifilterplates from Canberra Packard S.A. Zürich, Switzerland). To each well, 50 uL of scintillation cocktail was added (MicroScint 20, Canberra Packard S.A. Zürich, Switzerland) and the filter plates counted in a microplate counter (TopCount, Canberra Packard S.A. Zürich, Switzerland).
(§4) All the test compounds were dissolved, diluted and added in DMSO.

The target of assay [2] is T2, ETA receptors (rat aortic rings) (Rattus norvegicus, UniProt P26684).
T2 construct: The thoracic aorta or trachea were excised, dissected and cut in 3-5 mm rings; from tissue; host or cells: thoracic aorta rings of adult Wistar rats, endothelium removed
T2 sequence (P26684 21-426): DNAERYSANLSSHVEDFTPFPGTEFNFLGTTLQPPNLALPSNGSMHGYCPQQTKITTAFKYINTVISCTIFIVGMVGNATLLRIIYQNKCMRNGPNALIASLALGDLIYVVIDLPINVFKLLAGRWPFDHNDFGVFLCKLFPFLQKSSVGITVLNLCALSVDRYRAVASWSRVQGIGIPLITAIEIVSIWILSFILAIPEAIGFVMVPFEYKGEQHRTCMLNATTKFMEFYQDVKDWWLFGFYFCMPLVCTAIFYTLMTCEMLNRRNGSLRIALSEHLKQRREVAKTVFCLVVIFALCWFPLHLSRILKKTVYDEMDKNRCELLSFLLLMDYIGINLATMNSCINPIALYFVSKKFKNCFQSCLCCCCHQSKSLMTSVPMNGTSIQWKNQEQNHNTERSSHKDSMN
Kind of assay: Inhibition of endothelin-1-induced contraction on isolated rat aortic rings. Conditions: read-out: pA2 value Aorta (converted). Here is the method:
(§5) 2) Inhibition of Endothelin-Induced Contractions on Isolated Rat Aortic Rings (ETA Receptors) and Rat Tracheal Rings (ETB Receptors):
(§6) The functional inhibitory potency of the endothelin antagonists was assessed by their inhibition of the contraction induced by endothelin-1 on rat aortic rings (ETA receptors) and of the contraction induced by sarafotoxin S6c on rat tracheal rings (ETB receptors). Adult Wistar rats were anesthetized and exsanguinated. The thoracic aorta or trachea were excised, dissected and cut in 3-5 mm rings. The endothelium/epithelium was removed by gentle rubbing of the intimal surface. Each ring was suspended in a 10 ml isolated organ bath filled with Krebs-Henseleit solution (in mM; NaCl 115, KCl 4.7, MgSO4 1.2, KH2PO4 1.5, NaHCO3 25, CaCl2 2.5, glucose 10) kept at 37° C. and gassed with 95% O2 and 5% CO2. The rings were connected to force transducers and isometric tension was recorded (EMKA Technologies SA, Paris, France). The rings were stretched to a resting tension of 3 g (aorta) or 2 g (trachea). […] The functional inhibitory potency of the test compound was assessed by calculating the concentration ratio, i.e. the shift to the right of the EC50 induced by different concentrations of test compound. […]

Assay [3] concerns the target T3, human recombinant ETB receptors (Homo sapiens, UniProt P24530).
T3 construct: expressed in transfected cells; host or cells: CHO cells (microsomal membranes)
T3 sequence (P24530 27-442): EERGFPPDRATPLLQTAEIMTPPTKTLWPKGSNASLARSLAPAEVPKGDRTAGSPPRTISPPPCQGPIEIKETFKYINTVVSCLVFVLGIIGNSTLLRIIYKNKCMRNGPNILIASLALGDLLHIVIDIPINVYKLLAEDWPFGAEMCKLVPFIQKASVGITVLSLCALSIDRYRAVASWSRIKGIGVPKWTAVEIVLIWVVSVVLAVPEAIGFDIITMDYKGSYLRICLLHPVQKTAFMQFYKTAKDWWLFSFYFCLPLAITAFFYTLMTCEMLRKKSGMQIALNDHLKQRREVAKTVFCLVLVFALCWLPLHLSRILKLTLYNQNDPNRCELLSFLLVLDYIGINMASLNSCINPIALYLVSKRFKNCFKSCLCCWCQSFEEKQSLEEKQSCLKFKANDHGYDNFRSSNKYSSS
Briefly: Inhibition of [125I]ET-1 binding to membranes of CHO cells expressing human recombinant ETB receptors. The method, then: as §1, §2, §3, §4

Assay [4] has as its target T4, ETB receptors (rat tracheal rings) (Rattus norvegicus, UniProt P21451).
T4 construct: The thoracic aorta or trachea were excised, dissected and cut in 3-5 mm rings; from tissue; host or cells: tracheal rings of adult Wistar rats, epithelium removed
T4 sequence (P21451 27-442): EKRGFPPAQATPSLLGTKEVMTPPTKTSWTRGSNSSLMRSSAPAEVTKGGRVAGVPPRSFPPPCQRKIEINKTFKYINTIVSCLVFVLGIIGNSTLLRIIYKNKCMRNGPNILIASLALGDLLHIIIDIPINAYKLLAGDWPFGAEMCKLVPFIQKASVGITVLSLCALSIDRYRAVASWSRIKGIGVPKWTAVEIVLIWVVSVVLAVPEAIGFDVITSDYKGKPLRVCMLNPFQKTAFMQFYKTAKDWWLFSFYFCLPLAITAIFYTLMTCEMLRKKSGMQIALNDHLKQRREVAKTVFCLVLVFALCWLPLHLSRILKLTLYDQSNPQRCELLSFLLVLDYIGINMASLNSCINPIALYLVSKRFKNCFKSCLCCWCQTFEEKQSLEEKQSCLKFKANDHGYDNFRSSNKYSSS
Kind of assay: Inhibition of sarafotoxin S6c-induced contraction on isolated rat tracheal rings. As to conditions: contraction induced by sarafotoxin S6c, read-out: pA2 value Trachea (converted). Here is the method:
as §5, §6

Broadly, the IC50 is the midpoint of a concentration-inhibition curve.

Consider `COCCNS(=O)(=O)Nc1ncnc(OCCOc2ncc(Br)cn2)c1Oc1cc(OC)ccc1Cl` [Example 1, 2-methoxy-ethanesulfamic acid [6-[2-(5-bromo-pyrimidin-2-yloxy)-ethoxy]-5-(2-chloro-5-methoxy-phenoxy)-pyrimidin-4-yl]-amide], for which the values for the IC50 in assay [1] and in assay [3] were 0.28 nM and 174 nM, respectively. Besides, the Kb in assay [2] was 126 nM; in assay [4], 5130 nM.
On to `COCCNS(=O)(=O)Nc1ncnc(OCCOc2ncc(Br)cn2)c1-c1ccc(Br)cc1` [Example 2, 2-methoxy-ethanesulfamic acid {5-(4-bromophenyl)-6-[2-(5-bromopyrimidin-2-yloxy)-ethoxy]-pyrimidin-4-yl}-amide], for which the IC50 in assay [1] stood at 0.22 nM; in assay [3] it was 222 nM. Further, the Kb in assay [2] is 3.31 nM; in assay [4], more than 10000 nM.
Consider `COCCNS(=O)(=O)Nc1ncnc(OCCOc2ncc(SC)cn2)c1-c1ccc(Br)cc1` [Example 3, 2-Methoxy-ethanesulfamic acid {5-(4-bromophenyl)-6-[2-(5-methylsulfanyl-pyrimidin-2-yloxy)-ethoxy]-pyrimidin-4-yl}-amide], for which the IC50 in assay [1] turned out to be 0.2 nM; in assay [3] it was 120 nM.
For `COCCNS(=O)(=O)Nc1ncnc(OCCOc2ncc(OC)cn2)c1-c1ccc(Br)cc1` [Example 4, 2-Methoxy-ethanesulfamic acid {5-(4-bromophenyl)-6-[2-(5-methoxypyrimidin-2-yloxy)-ethoxy]-pyrimidin-4-yl}-amide], the IC50 is 1.27 nM in assay [1] and 560 nM in assay [3].
